The results in this text go back to PubChem BioAssay AID463229 (Broad Institute, 2010).

SMILES strings stand for the structures.

As a reminder, the AC50 is the midpoint of the concentration-response curve, whichever way the signal moves.

For this assay, the system named is INS-1E rat beta cells, no cytokines, CellTiter-Glo ATP, 48 h. The experiment in a line: cytokine-free beta-cell viability effect – INS-1E rat cells, ATP luminescence, cherry pick, counter-screen for beta-cell apoptosis protection project, dose response (AID 463229). (The purpose of a counterscreen is to sort out artefacts and off-target activity.)
As to `Cc1ccc(-c2[nH]ncc2/C=N/n2c(COc3ccccc3C)nc3ccccc3c2=O)cc1`, the concentration at half-maximal activity (AC50) is 8.38 µM.
With `Cn1c(/C=C/c2ccc([N+](=O)[O-])o2)nc2ccccc2c1=O` the figure was 3.56 µM; with `O=[N+]([O-])c1ccc(O)c(-c2cc(C(F)(F)F)nc(-c3ccccc3)n2)c1`, 1.59 µM; with `O=C(COc1ccc(Br)cc1)N1CCN(Cc2c[nH]c3ccccc23)CC1`, 3 µM.
With `COc1cc(/C=C2\CC(C(C)(C)C)C/C(=C\c3cc(OC)c(OC)c(OC)c3)C2=O)cc(OC)c1OC` (configuration not stated) the figure was 6.04 µM; with `CN(C)S(=O)(=O)c1cccc(CSCc2cccc(S(=O)(=O)N(C)C)c2)c1`, 7.78 µM.
With `CCOc1cc(/C=C2\CCC/C(=C\c3cc(Cl)c(O)c(OCC)c3)C2=O)cc(Cl)c1O` the figure was 7.28 µM; with `CN(C)CCNC(=O)/C(=C/c1ccc(-c2ccc(Cl)cc2Cl)o1)NC(=O)c1ccccc1`, 9.44 µM.
Regarding `C=CCSc1nc2ccccc2n1C(=O)/C=C/c1ccc(OC)c(OC)c1`, the AC50 was 11 µM.
As for `COc1cc(C(=O)Oc2ccccc2/C=N/NC(=O)c2ccc(C)c(Cl)c2)cc(OC)c1OC`, the concentration at half-maximal activity (AC50) was 12.6 µM.
Turning to `CN1C2CCC1/C(=C/c1ccccn1)C(=O)/C2=C\c1ccccn1`, the AC50 was 2.11 µM.
Turning to `CCc1ccc(CN(C)C(=O)c2cc(COc3cccc4cnccc34)on2)cc1`, the half-maximal activity concentration (AC50) was 7.91 µM.
With `Cc1ccccc1NC(=S)N/N=C/c1ccc(O)cc1O` the figure was 14.6 µM.
With `COc1ccc(Nc2nc(N3CCCC3)c3ccccc3n2)cc1` the figure was 9.85 µM.
Take `C/C(=N\NC(=O)Cc1ccc(Cl)cc1)c1ccccn1`: the concentration at half-maximal activity (AC50) was 4.89 µM.
Turning to `CN(C)CC(C(=O)c1ccccc1)c1ccccc1` (configuration not stated), the AC50 is 11.8 µM.
With `COc1ccc(CNc2ncnc3sccc23)cc1` the figure was 11.3 µM; with `CC(=O)c1cccc(NS(=O)(=O)c2ccc(N/C=C/C(=O)c3ccc(F)cc3)cc2)c1`, 5.02 µM; with `Oc1[nH]c(N=C2N=c3ccccc3=N2)c2ccccc12`, 3.44 µM.
Regarding `CCCCCCC[n+]1ccc(-c2cc[n+](CCCCCCC)cc2)cc1`, the AC50 was 3 µM.
Consider `CN(C)c1ccc(/C=C/c2ccc3ccccc3n2)cc1`, for which the AC50 is 2.28 µM.
With `COc1ccc(C2C(O)C(c3c[nH]c4ccccc34)=NN2C(=O)CCl)cc1` (configuration not stated) the figure was 2.9 µM.
With `CN(c1ccccc1)c1ccc(/C=C/[N+](=O)[O-])cc1` the figure was 8.01 µM; with `COc1ccc(Sc2nc(-c3ccccn3)ncc2OC)cc1`, 19.3 µM; with `COc1ccccc1NC(=O)Cn1cc(C(=O)c2ccco2)c2ccccc21`, 8.7 µM.
With `N=c1c2c(-c3ccccc3)c(-c3ccccc3)n(Cc3ccco3)c2ncn1Cc1ccccc1` the figure was 7.01 µM; with `C/C(=N\NC(=O)c1ccccc1NC(=O)c1ccc(Cl)cc1)c1ccncc1`, 0.967 µM.
Turning to `CNc1nc(N/N=C/c2cc3c(cc2[N+](=O)[O-])OCO3)nc(Nc2ccccc2)n1`, the half-maximal activity concentration (AC50) was 14.2 µM.
With `CC(NC(=O)c1cc(COc2ccc3ncccc3c2)on1)c1ccc(F)cc1` (configuration not stated), the AC50 was 5.86 µM.
`COc1cccc(/C=N/NC(=O)c2c(-c3ccccc3)noc2C)c1O`: the AC50 was 8.09 µM.
With `Cc1ccccc1CNc1ccc(C(CC(N)=O)NC(=O)c2ccc(Br)cc2)cc1[N+](=O)[O-]` (configuration not stated) the figure was 15.7 µM; with `COc1ccc(C(C)NCCC(c2ccc(OC(C)C)cc2)c2ccccc2OC)cc1` (configuration not stated), 7.99 µM.
With `COC(=O)C[C@]1(C(=O)OC)CN(C#N)N(c2ccc(Cl)cc2)C12c1ccccc1-c1ccccc12` the figure was 4.13 µM; with `Cc1cc(C)c2nc(NNC(=O)c3ccc(S(=O)(=O)N4CC(C)CC(C)C4)cc3)sc2c1` (configuration not stated), 4.75 µM.
Turning to `O=C1N/C(=N/N=C/c2ccccc2O)SC1Cc1ccc(F)cc1` (configuration not stated), the concentration at half-maximal activity (AC50) was 14.6 µM.
With `S=C(Nc1ccc(Cl)cc1)Nc1cccc2cnccc12` the figure was 22.2 µM; with `COc1ccc(C2/C=C\CN(C(=O)C3CC3)[C@H](Cc3ccccc3)C(=O)N2Cc2ccc(F)cc2)cc1` (some centres not stated), 14.5 µM.
